Reference: ChEMBL document CHEMBL1201862, “PubChem BioAssay data set” (2004)
The source made the active and inactive calls.

What was measured:
[1] = non-specific 3'UTR reporter inhibition in Clone20-Shn3RL – cell-based, Renilla luciferase, cherry-picked, counter-screen for Shn3 inhibitor project, dose response (AID 624133); format: functional
[2] = target: T1, Delta-type opioid receptor (Homo sapiens, UniProt P41143); assay: HTS Image-Based Screen for Antagonists of the DOR Receptor. [Related pubchem assays (depositor defined):AID1777, AID1785, AID1786, AID2133]; format: functional
[3] = target: T2, Kappa-type opioid receptor (Homo sapiens, UniProt P41145); format: functional
Protein RecA = target: T3, Protein RecA (Mycobacterium tuberculosis, UniProt P9WHJ3); assay: Fluorescence Cell-Free Homogeneous Dose Retest to Identify Inhibitors of RecA-Intein Splicing Activity. [Related pubchem assays (depositor defined):AID2097, AID2223, AID489010, AID492950]; format: functional
T3 sequence (P9WHJ3 whole entry): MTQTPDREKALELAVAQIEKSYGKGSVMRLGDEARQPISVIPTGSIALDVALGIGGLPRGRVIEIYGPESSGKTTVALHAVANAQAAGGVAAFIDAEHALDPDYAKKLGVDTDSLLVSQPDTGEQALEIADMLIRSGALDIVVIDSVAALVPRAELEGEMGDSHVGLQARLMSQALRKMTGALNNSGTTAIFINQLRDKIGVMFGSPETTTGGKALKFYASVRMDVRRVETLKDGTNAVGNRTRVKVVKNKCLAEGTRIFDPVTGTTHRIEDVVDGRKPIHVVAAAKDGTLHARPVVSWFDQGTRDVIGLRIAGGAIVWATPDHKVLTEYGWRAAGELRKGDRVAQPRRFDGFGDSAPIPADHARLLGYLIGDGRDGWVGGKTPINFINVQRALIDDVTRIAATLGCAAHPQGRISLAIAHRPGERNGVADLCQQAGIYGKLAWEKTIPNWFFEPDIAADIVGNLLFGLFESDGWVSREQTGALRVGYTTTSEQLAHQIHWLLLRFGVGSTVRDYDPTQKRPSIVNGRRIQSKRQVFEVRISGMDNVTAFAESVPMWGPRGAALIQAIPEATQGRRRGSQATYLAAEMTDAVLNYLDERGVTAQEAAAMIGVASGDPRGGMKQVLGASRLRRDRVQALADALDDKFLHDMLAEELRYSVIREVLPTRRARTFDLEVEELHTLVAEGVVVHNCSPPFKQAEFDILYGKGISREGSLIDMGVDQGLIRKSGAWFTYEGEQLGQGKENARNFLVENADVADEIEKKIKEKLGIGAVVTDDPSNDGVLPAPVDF

[4] = reduction of Shn3 3'UTR-driven luciferase in osteoblasts – cell-based, Clone20 osteoblasts, firefly luciferase, cherry-picked, dose response (AID 624132); format: functional;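 further: firefly luciferase luminescence from reporter carrying the Shn3 3'UTR in osteoblasts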
[5] = target: T4, Replicative DNA helicase DnaB (Mycobacterium tuberculosis, UniProt P9WMR3); assay: DnaB intein splicing inhibitors, dose response, biochemical, cell-free fluorescence (AID 449749); format: functional
T4 sequence (P9WMR3 whole entry): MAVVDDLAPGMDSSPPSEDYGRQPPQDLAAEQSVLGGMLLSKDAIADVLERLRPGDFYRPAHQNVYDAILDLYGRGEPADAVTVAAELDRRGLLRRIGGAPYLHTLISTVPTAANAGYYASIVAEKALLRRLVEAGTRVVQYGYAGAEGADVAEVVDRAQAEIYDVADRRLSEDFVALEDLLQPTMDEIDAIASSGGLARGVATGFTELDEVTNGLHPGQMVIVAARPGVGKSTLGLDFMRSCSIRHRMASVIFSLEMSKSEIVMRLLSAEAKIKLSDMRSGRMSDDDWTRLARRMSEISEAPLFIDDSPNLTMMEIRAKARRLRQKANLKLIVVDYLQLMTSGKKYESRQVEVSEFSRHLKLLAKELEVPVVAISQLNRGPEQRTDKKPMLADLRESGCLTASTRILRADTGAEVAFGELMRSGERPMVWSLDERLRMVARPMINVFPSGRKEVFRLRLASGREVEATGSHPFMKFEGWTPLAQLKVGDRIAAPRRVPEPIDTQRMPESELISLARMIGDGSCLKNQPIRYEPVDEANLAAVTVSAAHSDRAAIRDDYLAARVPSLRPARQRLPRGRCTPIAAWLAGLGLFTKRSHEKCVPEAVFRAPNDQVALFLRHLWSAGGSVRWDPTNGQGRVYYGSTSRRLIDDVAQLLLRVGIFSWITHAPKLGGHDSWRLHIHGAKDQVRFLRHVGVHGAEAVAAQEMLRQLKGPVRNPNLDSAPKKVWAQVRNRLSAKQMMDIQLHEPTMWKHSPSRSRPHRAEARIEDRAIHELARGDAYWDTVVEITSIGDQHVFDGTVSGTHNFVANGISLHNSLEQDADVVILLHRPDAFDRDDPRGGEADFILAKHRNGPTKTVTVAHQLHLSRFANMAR

[6] = target: T2, Kappa-type opioid receptor; format: functional; remark: listed apart in the source
Mu-type opioid receptor = Mu-type opioid receptor (Homo sapiens, UniProt P35372); assay: HTS Image-Based Screen for Agonists of the MOR Receptor. [Related pubchem assays (depositor defined):AID1777, AID1785, AID1786, AID2133]; format: functional;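 further: imaging of beta-arrestin GFP recruitment into spots after receptor activation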
CHO = CHO cell viability loss, potency – luminescence, cytotoxicity control for TLR9-MyD88 binding inhibitor project, dose response (AID 588339); format: functional, cell-based, hamster; settings: Cricetulus griseus;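 further: CHO cells stably coexpressing TLR9 and MyD88 fusions from primary screen; compound exposure lasted 48 hours before viability readout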
[7] = loss of viability in HepG2 cells – cell-based, CellTiter-Glo, cherry-picked, cytotoxicity control for Shn3 inhibitor project, dose response (AID 624134); format: functional
[8] = target: T1, Delta-type opioid receptor; assay: HTS Image-Based Screen for Agonists of the DOR Receptor. [Related pubchem assays (depositor defined):AID1777, AID1786, AID2133]; format: functional
[9] = target: Heat shock protein HSP 90-alpha (Homo sapiens, UniProt P07900); format: functional, organism-based
[10] = target: ATP-binding cassette sub-family B member 6 (Homo sapiens, UniProt Q9NP58); assay: ABCB6 transporter inhibitors, porphyrin accumulation, dose response, flow cytometry, K562-ABCB6 cells, cherry pick 02 (AID 624487); format: functional; settings: read-out: EC50_MICROM
Beta-galactosidase = Beta-galactosidase (Escherichia coli, UniProt Q8VNN2); format: functional
Beta Lactamase = Beta Lactamase (Pseudomonas aeruginosa, UniProt Q932Y6); assay: BLA reporter interference, concentration series – BLA reporter cells, FRET fluorescence, artefact control for TLR9-MyD88 binding inhibitor project, dose response (AID 588341); format: cell-based;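 further: cell based assay in CHO-K1 cells stably expressing beta-lactamase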
[11] = mouse fibroblast viability loss – cell-based, cherry-pick samples, set 2, cytotoxicity control for T. cruzi growth inhibitor project, dose response (AID 651817); format: functional; settings: NIH3T3
Beta-lactamase [12] = target: T5, Beta-lactamase (Pseudomonas aeruginosa, UniProt Q79MP6); assay: […] counterscreen for selective VIM-2 inhibitors: dose response biochemical high throughput screening assay to identify inhibitors of IMP-1 metallo-beta-lactamase.
Beta-lactamase [13] = target: Beta-lactamase (Salmonella choleraesuis (strain SC-B67), UniProt Q5J463); assay: Epi-absorbance-based counterscreen for selective VIM-2 inhibitors: dose response biochemical high throughput screening assay to identify inhibitors of TEM-1 serine-beta-lactamase.
Beta-lactamase [14] = target: T5, Beta-lactamase; assay: inhibition of IMP-1 beta-lactamase activity – biochemical, epi-absorbance, selectivity assay for VIM-2 inhibitor project, dose response (AID 1920)
[15] = target: Beta-2 adrenergic receptor (Homo sapiens, UniProt P07550); assay: Dose response for HTS for Beta-2AR agonists via FAP method from Powderset3.; format: functional
Sequence of Beta-2 adrenergic receptor (P07550 whole entry): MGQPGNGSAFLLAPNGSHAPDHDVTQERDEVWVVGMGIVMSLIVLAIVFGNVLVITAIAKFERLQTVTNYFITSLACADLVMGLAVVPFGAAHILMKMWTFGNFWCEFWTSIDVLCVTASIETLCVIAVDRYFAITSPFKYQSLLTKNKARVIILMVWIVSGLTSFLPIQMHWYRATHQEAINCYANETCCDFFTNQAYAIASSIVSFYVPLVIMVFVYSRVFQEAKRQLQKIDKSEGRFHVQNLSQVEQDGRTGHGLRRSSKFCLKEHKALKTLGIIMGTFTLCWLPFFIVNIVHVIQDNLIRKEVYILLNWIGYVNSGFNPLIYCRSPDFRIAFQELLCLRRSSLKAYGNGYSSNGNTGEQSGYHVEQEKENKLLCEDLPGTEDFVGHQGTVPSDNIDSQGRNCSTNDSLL

T2 sequence (P41145 whole entry): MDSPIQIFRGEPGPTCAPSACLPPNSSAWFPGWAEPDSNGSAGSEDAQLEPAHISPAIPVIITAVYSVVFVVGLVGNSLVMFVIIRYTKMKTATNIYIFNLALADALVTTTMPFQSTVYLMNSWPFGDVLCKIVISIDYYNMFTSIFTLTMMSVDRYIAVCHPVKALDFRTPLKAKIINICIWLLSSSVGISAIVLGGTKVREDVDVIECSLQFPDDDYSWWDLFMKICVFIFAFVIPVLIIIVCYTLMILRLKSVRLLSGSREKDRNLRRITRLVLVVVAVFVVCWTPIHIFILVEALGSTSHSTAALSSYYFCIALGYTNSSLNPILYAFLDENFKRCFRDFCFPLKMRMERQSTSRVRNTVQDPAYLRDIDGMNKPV
T1 sequence (P41143 whole entry): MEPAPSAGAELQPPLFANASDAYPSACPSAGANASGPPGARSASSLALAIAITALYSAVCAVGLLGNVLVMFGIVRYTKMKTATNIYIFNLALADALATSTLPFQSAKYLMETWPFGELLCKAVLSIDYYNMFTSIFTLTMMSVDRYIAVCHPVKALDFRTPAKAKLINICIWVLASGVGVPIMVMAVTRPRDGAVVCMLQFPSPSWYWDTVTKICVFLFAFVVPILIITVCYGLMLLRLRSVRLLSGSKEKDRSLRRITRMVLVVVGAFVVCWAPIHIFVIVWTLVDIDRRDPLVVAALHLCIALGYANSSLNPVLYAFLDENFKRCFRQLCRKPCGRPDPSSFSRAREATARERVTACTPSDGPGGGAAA
T5 sequence (Q79MP6 whole entry): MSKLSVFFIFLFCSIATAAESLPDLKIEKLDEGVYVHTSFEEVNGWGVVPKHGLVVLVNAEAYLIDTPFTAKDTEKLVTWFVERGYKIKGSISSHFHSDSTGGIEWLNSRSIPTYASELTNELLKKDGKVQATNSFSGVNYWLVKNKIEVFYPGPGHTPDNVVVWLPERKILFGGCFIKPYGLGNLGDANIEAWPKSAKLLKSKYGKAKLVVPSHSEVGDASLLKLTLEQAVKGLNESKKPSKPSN
Sequence of ATP-binding cassette sub-family B member 6 (Q9NP58 whole entry): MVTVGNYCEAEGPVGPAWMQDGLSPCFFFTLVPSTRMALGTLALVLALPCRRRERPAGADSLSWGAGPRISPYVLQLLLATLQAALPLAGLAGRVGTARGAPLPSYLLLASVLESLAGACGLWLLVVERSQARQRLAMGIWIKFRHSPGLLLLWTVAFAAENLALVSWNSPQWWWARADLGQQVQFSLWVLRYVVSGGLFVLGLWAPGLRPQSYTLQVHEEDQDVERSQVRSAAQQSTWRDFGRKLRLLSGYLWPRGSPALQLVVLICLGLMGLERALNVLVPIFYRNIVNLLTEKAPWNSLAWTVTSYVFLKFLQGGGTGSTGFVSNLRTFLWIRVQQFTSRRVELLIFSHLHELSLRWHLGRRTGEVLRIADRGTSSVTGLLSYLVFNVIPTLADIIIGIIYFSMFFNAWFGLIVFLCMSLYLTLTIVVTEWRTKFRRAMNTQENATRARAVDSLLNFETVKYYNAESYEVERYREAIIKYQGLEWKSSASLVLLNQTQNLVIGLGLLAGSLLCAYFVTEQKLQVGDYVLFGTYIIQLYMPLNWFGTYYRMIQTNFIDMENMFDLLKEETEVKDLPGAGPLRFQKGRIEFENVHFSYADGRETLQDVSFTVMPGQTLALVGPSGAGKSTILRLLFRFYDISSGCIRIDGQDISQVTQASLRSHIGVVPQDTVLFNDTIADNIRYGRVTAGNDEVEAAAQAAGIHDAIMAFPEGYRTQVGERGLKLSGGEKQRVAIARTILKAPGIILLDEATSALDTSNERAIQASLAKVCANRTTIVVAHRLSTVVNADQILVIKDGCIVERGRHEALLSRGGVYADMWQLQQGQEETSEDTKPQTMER
Sequence of Beta-lactamase (Salmonella choleraesuis (strain SC-B67), UniProt Q5J463) (Q5J463 whole entry): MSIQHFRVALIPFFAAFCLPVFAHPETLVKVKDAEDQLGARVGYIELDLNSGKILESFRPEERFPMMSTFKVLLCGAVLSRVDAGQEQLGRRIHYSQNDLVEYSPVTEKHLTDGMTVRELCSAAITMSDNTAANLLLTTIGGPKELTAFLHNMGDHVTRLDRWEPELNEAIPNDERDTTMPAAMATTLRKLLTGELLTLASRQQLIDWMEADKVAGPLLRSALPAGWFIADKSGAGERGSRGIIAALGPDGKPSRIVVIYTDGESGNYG
Sequence of Beta Lactamase (Q932Y6 whole entry): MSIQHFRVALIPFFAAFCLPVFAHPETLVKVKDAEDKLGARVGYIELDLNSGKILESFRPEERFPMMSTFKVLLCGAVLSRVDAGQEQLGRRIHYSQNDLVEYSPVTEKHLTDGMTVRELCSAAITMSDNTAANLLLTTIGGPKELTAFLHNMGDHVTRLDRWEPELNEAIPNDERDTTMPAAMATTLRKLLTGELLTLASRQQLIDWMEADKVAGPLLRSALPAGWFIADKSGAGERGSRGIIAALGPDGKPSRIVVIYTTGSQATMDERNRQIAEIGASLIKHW
Sequence of Mu-type opioid receptor (P35372 whole entry, the tested form may be a part): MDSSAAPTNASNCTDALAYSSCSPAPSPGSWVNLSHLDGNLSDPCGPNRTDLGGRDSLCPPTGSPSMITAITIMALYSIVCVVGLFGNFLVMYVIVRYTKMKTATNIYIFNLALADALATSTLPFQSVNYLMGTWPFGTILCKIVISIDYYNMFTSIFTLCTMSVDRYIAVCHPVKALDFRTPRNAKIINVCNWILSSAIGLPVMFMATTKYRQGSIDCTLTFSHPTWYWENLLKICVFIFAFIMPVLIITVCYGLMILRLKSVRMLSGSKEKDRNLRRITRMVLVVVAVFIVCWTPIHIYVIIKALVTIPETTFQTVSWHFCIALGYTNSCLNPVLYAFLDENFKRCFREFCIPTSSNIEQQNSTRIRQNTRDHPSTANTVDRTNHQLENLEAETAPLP
Sequence of Beta-galactosidase (Q8VNN2 whole entry): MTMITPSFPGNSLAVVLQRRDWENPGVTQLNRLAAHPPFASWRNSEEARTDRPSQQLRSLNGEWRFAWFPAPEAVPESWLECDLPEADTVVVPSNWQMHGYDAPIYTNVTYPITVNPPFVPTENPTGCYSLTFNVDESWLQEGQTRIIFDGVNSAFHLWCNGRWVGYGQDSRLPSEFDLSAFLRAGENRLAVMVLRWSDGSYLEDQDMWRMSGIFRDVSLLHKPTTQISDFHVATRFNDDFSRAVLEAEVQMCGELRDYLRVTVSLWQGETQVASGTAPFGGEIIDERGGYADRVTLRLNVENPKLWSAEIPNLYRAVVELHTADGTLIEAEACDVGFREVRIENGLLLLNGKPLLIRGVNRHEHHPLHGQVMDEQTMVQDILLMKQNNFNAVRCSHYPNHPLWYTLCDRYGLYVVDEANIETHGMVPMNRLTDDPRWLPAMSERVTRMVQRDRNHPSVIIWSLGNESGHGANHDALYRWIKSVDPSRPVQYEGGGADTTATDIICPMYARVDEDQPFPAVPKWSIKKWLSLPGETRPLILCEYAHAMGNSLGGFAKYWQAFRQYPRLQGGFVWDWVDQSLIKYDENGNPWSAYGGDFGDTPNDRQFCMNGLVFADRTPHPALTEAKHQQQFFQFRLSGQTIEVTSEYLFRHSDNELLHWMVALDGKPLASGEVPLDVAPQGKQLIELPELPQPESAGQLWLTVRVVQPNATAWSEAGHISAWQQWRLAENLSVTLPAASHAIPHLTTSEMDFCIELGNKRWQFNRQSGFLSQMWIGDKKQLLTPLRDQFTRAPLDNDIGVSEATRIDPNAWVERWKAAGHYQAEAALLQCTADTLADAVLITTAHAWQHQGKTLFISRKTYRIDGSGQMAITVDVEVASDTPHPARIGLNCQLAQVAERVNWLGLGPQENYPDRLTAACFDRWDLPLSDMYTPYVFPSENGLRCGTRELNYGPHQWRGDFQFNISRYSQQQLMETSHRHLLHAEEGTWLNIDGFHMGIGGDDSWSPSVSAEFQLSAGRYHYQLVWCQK

**Q.** Which results are given for `CCc1ccc(NC(=O)c2nc(S(=O)(=O)Cc3ccccc3)ncc2Cl)cc1`?
**A.** AC50 [1]: 8.1 µM (active); IC50 [2]: 11.9 µM (inactive); IC50 [3]: 13.7 µM (active); EC50 (Protein RecA): 1.82 µM (active); AC50 [4]: 551 nM (active); AC50 [5]: 2.28 µM (active); IC50 [6]: 7.28 µM; EC50 (Mu-type opioid receptor): > 32 µM (inactive); IC50 (CHO): 2.91 µM (active); AC50 [7]: 24.4 µM (active); EC50 [8]: > 32 µM (inactive); AC50 [9]: 1.74 µM (active); EC50 [10]: 23.9 µM (active); EC50 (Beta-galactosidase): > 31.5 µM (inactive); IC50 (Beta Lactamase): 12.1 µM (inactive)

**Q.** With `C[C@H](CO)N1C[C@H](C)[C@H](CN(C)S(=O)(=O)c2ccccc2)Oc2c(NC(=O)c3nc4ccccc4s3)cccc2C1=O` as the compound, how does the AC50 [11] read?
**A.** The AC50 was 22.6 µM (active).

**Q.** Which IC50 (Beta-lactamase [12]) does the source give for `S=c1[nH]nc(C2CC2)n1Cc1ccccc1` here?
**A.** Its IC50 is > 59.6 µM (inactive).

**Q.** And the IC50 (Beta-lactamase [13])?
**A.** The IC50 was > 59.6 µM (inactive).

**Q.** And the IC50 (Beta-lactamase [14])?
**A.** The IC50 was > 59.6 µM (inactive).

**Q.** With `COCc1ccc(CN2CCCC(C(=O)Nc3ccc(-c4cccc(OC)c4)cc3)C2)o1` (stereo not given) as the compound, how does the EC50 [15] read?
**A.** Its EC50 is 607 µM (inactive).
